From patent US20140228398A1, “COMBINATIONS OF ALPHA 7 NICOTINIC ACETYLCHOLINE RECEPTOR ACTIVATORS AND mGluR5 ANTAGONISTS FOR USE IN DOPAMINE INDUCED [sequence] IN PARKINSON'S DISEASE” (NOVARTIS AG, priority 2011, published 2014)

Assays:
mice = test: Social Recognition Test in mice; format: in vivo, mouse; conditions: oral, dose 3 mg/kg, familiar partner at 24 h vs time 0
Method: Social interactions between two experimental animals are influenced by their degree of familiarity: the better they know each other, the less time they spend on mutual scrutiny at each meeting. […] Memory enhancing agents (i.e. oxiracetam) facilitate learning to the extent that the previously met (familiar) partner is still remembered after 24 h, whereas in vehicle treated control animals the memory usually fades after less than 1 hour (Thor and Holloway, 1982) or after 2-3 hours.
Baseline-test: Pairs consisting of one adult and one young mouse were assigned at random to the experimental and control groups. In each pair only the adult mouse was orally treated 1 hour before the trial with either vehicle or the test compound. The duration of active contacts of the adult mouse with the young mouse was manually recorded over a period of 3 min, including the following behavioural, approach-related items: sniffing, nosing, grooming, licking, pawing and playing, anogenital exploration and orientation toward the young mouse; orientation, thereby, was defined as tip of nose of the adult mouse less than approximately 1 cm distant from the young mouse's body. […]

[1] = Oral bioavailability and brain penetration in mice; format: in vivo; conditions: 30 μmol/kg p.o., ± SD
Method: […] Male mice (30-35g, OF1/ICstrain) were sacrificed at indicated time points after oral administration. Trunk-blood was collected in EDTA-containing tubes and the brain was removed and immediately frozen on dry ice. To 100 μl plasma 10 μl internal standard (1.0 pmol of a compound with solubility and ionization properties similar to test compounds) was added and extracted three times with 500 μl dichloromethane. The combined extracts were then dried under a stream of nitrogen and re-dissolved in 100 μl acetonitrile/water (70% acetonitrile). Brains were weighed and homogenized in water (1:5 w/v). Two 100 μl aliquots of each homogenate+10 μl of internal standard (same standard as used for the plasma samples) were extracted three times with 500 μl dichloromethane and further processed as the plasma samples. Samples were separated on Beckmann high-performance liquid chromatography equipment system with an autosampler (Gilson 233XL).
The limit of detection (LOD), defined as the lowest concentration of the extracted standard sample with a signal to noise ratio of ˜3.

parkinsonian primates [2] = test: Movement disorder model: antidyskinetic effect in parkinsonian (MPTP) primates; format: in vivo, cynomolgus monkeys (Macaca fascicularis); conditions: for locomotor response / mean parkinsonian score: parkinsonian primates; for mean parkinsonian score: reduced from 9.4
Method: Female ovariectomized cynomolgus monkeys (Macaca fascicularis) are used in the assessment. The animals can be rendered parkinsonian by continuous infusion of 1-methyl-4-phenyl-1,2,3,6-tetrahydropyridine (MPTP) until they develop a stable parkinsonian syndrome. After recuperation, animals are treated daily with levodopa until clear and reproducible dyskinesias are developed.
Monkeys are observed through a one-way screen window in their home cage. They are observed and scored repeatedly at baseline and after a standard s.c. dose of levodopa. Locomotor activity is assessed and followed with an electronic monitoring system. Antiparkinsonian responses are evaluated by measuring the locomotor activity and a Parkinson disability scale (see Hadj Tahar A et al, Clin Neuropharmacol 2000; 23:195-202; and Samadi P et al, Neuropharmacology 2003; 45:954-963). Dyskinesias are closely monitored and scored according to a dyskinesia rating scale (also described in Hadj Tahar A et al; and Samadi P et al) every 15 minutes until the end of the effect. The doses of levodopa are chosen to induce motor activation and reproducible dyskinesia but no excessive agitation.
Monkeys are observed for at least two hours following an oral administration of vehicle. On a subsequent day, the dose of levodopa selected is tested once. The animals are observed (with measures of parkinsonian and dyskinetic scores) for the entire duration of the levodopa effect and are also monitored for locomotor activity. This provides vehicle control values as well as levodopa antiparkinsonian and dyskinesia response data for comparison with combinations of a α7-nAChR agonist/positive allosteric modulator and levodopa. The monkeys are then tested with a α7-nAChR agonist/positive allosteric modulator in combination with a fixed dose of levodopa. A suspension for oral administration of the α7-nAChR agonist/positive allosteric modulator is administered before levodopa. After each dose, the animals are observed (with measures of parkinsonian and dyskinetic scores) for the entire duration of effect and monitored for locomotor activity or any change in behavior (e.g. circling, excitement, lethargy and sleepiness).
Using this protocol, compound A-1 at a dose of 20 mg/kg was tested. Results based on five monkeys (levodopa/benserazide doses: 22.5/50 mg; 65/50 mg; 30/50 mg; 35/50 mg; and 25/50 mg) are shown in FIGS. 1-4.
For experiments shown in FIGS. 5 and 6 parkinsonian primates were treated orally with 10 mg/kg MPEP, 20 mg/kg JN403 and a combination of MPEP (10 mg/kg) and JN403 (20 mg/kg). In said experiments, compound MPEP increased the locomotor response from 230 count over 4 h to 810.

parkinsonian primates [3] = conditions: data published in WO2009047296 and Gregoire et al 2011; cited from earlier work
[4] = compound A-1 20 mg/kg oral with levodopa/benserazide, five monkeys

Row | SMILES | Brain ([1]; 0.5 hour) | Brain ([1]; 1 hour) | Brain ([1]; 2 hour) | Brain ([1]; 4 hour) | Brain ([1]; 24 hour) | Brain ([1]; 0.25 hour) | Brain ([1]; 8 hour) | further results
1 | C[C@H](OC(=O)N[C@@H]1CN2CCC1CC2)c1ccccc1F [A-1, (S)-(1-aza-bicyclo[2.2.2]oct-3-yl)-carbamic acid (S)-1-(2-fluoro-phenyl)-ethyl ester] | 706.3 ± 153.4 pmol/g | 573.7 ± 109.3 pmol/g | 191.9 ± 34.9 pmol/g | 104.6 ± 39.6 pmol/g | 9.1 ± 2.7 pmol/g | – | – | Reduction in time scrutinizing in % ± SEM at 24 h (mice): 52 ± 4%; Plasma ([1]; 0.5 hour): 634.9 ± 261.3 pmol/mL; Plasma ([1]; 1 hour): 684.7 ± 339.6 pmol/mL; Plasma ([1]; 2 hour): 168.2 ± 91.3 pmol/mL; Plasma ([1]; 4 hour): 85.0 ± 54.3 pmol/mL; Brain ([1]; 6 hour): 40.5 ± 12.1 pmol/g; Plasma ([1]; 6 hour): 29.5 ± 13.8 pmol/mL; Plasma ([1]; 24 hour): 3.8 ± 0.6 pmol/mL; antiparkinsonian activity of levodopa (antiparkinsonian score) (parkinsonian primates [2]; [4]): does not lower the antiparkinsonian activity of levodopa; onset of action of levodopa (Elapsed Time after Levodopa Administration) (parkinsonian primates [2]; [4]): does not delay the onset of action of levodopa; Duration of Levodopa-Response (parkinsonian primates [2]; compound A-1 20 mg/kg oral with levodopa/benserazide, five monkeys, extended from 230 minutes): 265 min; Mean Dyskinesia Score (total period) (parkinsonian primates [2]; compound A-1 20 mg/kg oral with levodopa/benserazide, five monkeys, reduced from 2.8): 2.1; locomotor response (parkinsonian primates [2]; oral 20 mg/kg JN403, baseline 230 count over 4 h): no effect; mean parkinsonian score (parkinsonian primates [2]; oral 20 mg/kg JN403): 9.0
2 | Cc1cccc(C#Cc2ccccc2)n1 [F-2, 2-Methyl-6-phenylethynyl-pyridine, reference compound] | – | – | – | – | – | – | – | locomotor response (parkinsonian primates [2]; oral 10 mg/kg MPEP, increased from 230): 810 count over 4 h; mean parkinsonian score (parkinsonian primates [2]; oral 10 mg/kg MPEP): 8.2
3 | c1cc2cc(-c3cnc(O[C@H]4CCN5CCC[C@@H]4C5)nc3)ccc2[nH]1 [C-1, (4S,5R)-4-[5-(1H-indol-5-yl)-pyrimidin-2-yloxy]-1-aza-bicyclo[3.3.1]nonane] | 1405 ± 539 pmol/g | 1458 ± 189 pmol/g | 1478 ± 259 pmol/g | 842 ± 187 pmol/g | – | 620 ± 221 pmol/g | 362 ± 62 pmol/g | –
4 | C[C@H]1[C@H](Oc2ccc(-c3ccc4[nH]ccc4c3)nn2)C2CCN1CC2 [B-13, (2S,3R)-3-[6-(1H-indol-5-yl)-pyridazin-3-yloxy]-2-methyl-1-aza-bicyclo[2.2.2]octane] | 2960 ± 706 pmol/g | 2940 ± 335 pmol/g | 1260 ± 172 pmol/g | 379 ± 134 pmol/g | 13 ± 4 pmol/g | 1884 ± 291 pmol/g | 93 ± 30 pmol/g | –
5 | Cc1cc(/C(=C/Nc2ccc(Cl)cc2)C(=O)Nc2ccc(Cl)cc2)on1 [E-1, (Z)—N-(4-Chloro-phenyl)-3-(4-chloro-phenylamino)-2-(3-methyl-isoxazol-5-yl)-acrylamide] | – | – | – | – | – | – | – | L-dopa induced dyskinesias (parkinsonian primates [3]): able to reduce L-dopa induced dyskinesias
